Data taken from patent US8349883B2, “Hydroxamate-based inhibitors of deacetylases B” (Novartis AG, priority 2008, dated 2013).
pIC50: −log10 of the molar value.

Experiments:
HCT116 = HCT116 IC50; type: cell-based; conditions: Homo sapiens, HCT-116
HDAC-1 = molecular target: T1, HDAC-1 (Homo sapiens, UniProt Q13547); assay: HDAC inhibition assay (purified GST-HDAC protein); type: biochemical
T1 construct: made in house; host or cells: Sf9 or Sf21 insect cells (baculovirus, donor vector pFB-GSTX3)
T1 sequence (Q13547 whole entry, species assumed): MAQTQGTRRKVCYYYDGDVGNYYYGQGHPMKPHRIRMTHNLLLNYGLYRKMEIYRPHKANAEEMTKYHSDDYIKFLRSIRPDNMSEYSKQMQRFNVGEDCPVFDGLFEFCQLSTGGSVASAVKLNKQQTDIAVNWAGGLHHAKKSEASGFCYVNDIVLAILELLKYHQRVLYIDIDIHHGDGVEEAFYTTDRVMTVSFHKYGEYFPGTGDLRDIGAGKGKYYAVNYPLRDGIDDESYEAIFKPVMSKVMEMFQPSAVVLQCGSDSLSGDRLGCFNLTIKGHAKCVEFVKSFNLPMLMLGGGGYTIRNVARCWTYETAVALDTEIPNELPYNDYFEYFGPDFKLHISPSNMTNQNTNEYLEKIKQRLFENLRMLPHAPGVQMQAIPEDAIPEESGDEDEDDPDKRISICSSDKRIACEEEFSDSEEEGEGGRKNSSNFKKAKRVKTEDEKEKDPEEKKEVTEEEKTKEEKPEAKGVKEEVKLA
Text: The baculovirus donor vector pFB-GSTX3 was used to generate a recombinant baculovirus that can express the HDAC polypeptide. Transfer vectors containing the HDAC coding region were transfected into the DH10Bac cell line (GIBCO) and plated on selective agar plates. Colonies without insertion of the fusion sequence into the viral genome (carried by the bacteria) were blue. Single, white colonies were picked and viral DNAs (bacmid) were isolated from the bacteria by standard plasmid purification procedures. Sf9 cells or Sf21 (American Type Culture Collection) cells were then transfected in […] flasks with the viral DNA using Cellfectin reagent.
Virus-containing media was collected from the transfected cell culture and used for infection to increase its titer. Virus-containing media obtained after two rounds of infection was used for large-scale protein expression. For large-scale protein expression 100 cm^2 round tissue culture plates were seeded with 5×10^7 cells/plate and infected with 1 mL of virus-containing media (at an approximately MOI of 5). After 3 days, the cells were scraped off the plate and centrifuged at 500 rpm for 5 minutes. Cell pellets from 10-20, 100 cm^2 plates, were re-suspended in 50 mL of ice-cold lysis buffer (25 mM tris-HCl, pH 7.5, 2 mM EDTA, 1% NP-40, 1 mM DTT, 1 mM P MSF). The cells were stirred on ice for 15 minutes and then centrifuged at 5,000 rpms for 20 minutes.
The centrifuged cell lysate was loaded onto a 2 mL glutathione-sepharose column (Pharmacia) and was washed thrice with 10 mL of 25 mM tris-HCl, pH 7.5, 2 mM EDTA, 1 mM DTT, 200 mM NaCl. The GST-tagged proteins were then eluted by 10 applications (1 mL each) of 25 mM tris-HCl, pH 7.5, 10 mM reduced-glutathione, 100 mM NaCl, 1 mM DTT, 10% glycerol and stored at −70° C.
HDAC assays with purified GST-HDAC protein were carried out in a final volume of 30 μL containing 15 ng of GST-HDAC protein, 20 mM tris-HCl, pH 7.5, 1 mM MnCl2, 10 mM MgCl2, 1 mM DTT, 3 μg/mL poly(Glu,Tyr) 4:1, 1% DMSO, 2.0 μM ATP (γ-[^33P]-ATP 0.1 μCi). The activity was assayed in the presence or absence of inhibitors. The assay was carried out in 96-well plates at ambient temperature for 15 minutes under conditions described below and terminated by the addition of 20 μL of 125 mM EDTA. Subsequently, 40 μL of the reaction mixture were transferred onto EMMOBILON-PVDF membrane (Millipore) previously soaked for 5 minutes with methanol, rinsed with water, then soaked for 5 minutes with 0.5% H3PO4 and mounted on vacuum manifold with disconnected vacuum source. After spotting all samples, a vacuum was connected and each well rinsed with 200 μL 0.5% H3PO4. Membranes were removed and washed four times on a shaker with 1.0% H3PO4, once with ethanol. Membranes were counted after drying at ambient temperature, mounting in Packard TopCount 96-well frame, and addition of 10 μL/well of MICROSCINT™ (Packard). IC50 values were calculated by linear regression analysis of the percentage inhibition of each compound in duplicate, at 4 concentrations (usually 0.01, 0.1, 1 and 10 μM).
• Input: 3×4 μL stopped assay on IMMOBILON membrane, not washed • Background (3 wells): assay with H2O instead of enzyme • Positive control (4 wells): 3% DMSO instead of compound • Bath control (1 well): no reaction mix
IC50 values were calculated by logarithmic regression analysis of the percentage inhibition of each compound at 4 concentrations (usually 3- or 10-fold dilution series starting at 10 μM). In each experiment, the actual inhibition by reference compound was used for normalization of IC50 values to the basis of an average value of the reference inhibitor: Normalized IC50=measured IC50 average ref IC50/measured ref IC50
Example: Reference inhibitor in experiment 0.4 μM, average 0.3 μM, Test compound in experiment 1.0 μM, normalization: 0.3/0.4=0.75 μM
For example, known HDAC inhibitors or a synthetic derivative thereof may be used as reference compounds.

Row | pIC50 (HCT116) | pIC50 (HDAC-1) | SMILES
1 | 6.74 | 7.51 | O=C(CCc1ccc([C@H]2CCCN2CCc2cnn3ccccc23)cc1)NO [Compound 121, N-Hydroxy-3-{4-[(R)-1-(2-pyrazolo[1,5-a]pyridin-3-yl-ethyl)-pyrrolidin-2-yl]-phenyl}-propionamide]
2 | 7.41 | 7.77 | Cc1nn(CCN2CCC[C@H]2c2ccc(/C=C/C(=O)NO)cc2)c(C)c1C [Compound 67, (E)-N-Hydroxy-3-(4-{1-[2-(3,4,5-trimethyl-pyrazol-1-yl)-ethyl]-pyrrolidin-2-yl}-phenyl)-acrylamide]
3 | 8.85 | 9.10 | CCc1n[nH]c(CC)c1CCN1CCC[C@H]1c1ccc(/C=C/C(=O)NO)cc1 [Compound 99, (E)-3-(4-{(S)-1-[2-(3,5-Diethyl-1H-pyrazol-4-yl)-ethyl]-pyrrolidin-2-yl}-phenyl)-N-hydroxy-acrylamide]
4 | 7.49 | 7.60 | CC(C)n1nnnc1CCN1CCC[C@H]1c1ccc(CCC(=O)NO)cc1 [Compound 115, N-Hydroxy-3-(4-{(S)-1-[2-(1-isopropyl-1H-tetrazol-5-yl)-ethyl]-pyrrolidin-2-yl}-phenyl)-propionamide]
5 | 7.47 | 8.10 | CN1CCN(CCc2cnn3ccccc23)C(c2ccc(/C=C/C(=O)NO)cc2)C1 (centres unmarked) [Compound 90, (E)-N-Hydroxy-3-{4-[4-methyl-1-(2-pyrazolo[1,5-a]pyridin-3-yl-ethyl)-piperazin-2-yl]-phenyl}-acrylamide]
6 | 7.49 | 7.60 | CC(C)n1nnnc1CCN1CCC[C@H]1c1ccc(/C=C/C(=O)NO)cc1 [Compound 102, (E)-N-Hydroxy-3-(4-{(S)-1-[2-(1-isopropyl-1H-tetrazol-5-yl)-ethyl]-pyrrolidin-2-yl}-phenyl)-acrylamide]
7 | 8.52 | 8.40 | O=C(/C=C/c1ccc([C@@H]2CCCN2CCc2cnn3ccccc23)c(Cl)c1)NO [Compound 92, (E)-3-{3-Chloro-4-[(S)-1-(2-pyrazolo[1,5-a]pyridin-3-yl-ethyl)-pyrrolidin-2-yl]-phenyl}-N-hydroxy-acrylamide]
8 | 6.92 | 7.66 | O=C(/C=C/c1ccc([C@@H]2CCCN2CCc2cn(Cc3ccccc3)nn2)cc1)NO [Compound 78, (E)-3-(4-{(S)-1-[2-(1-Benzyl-1H-[1,2,3]triazol-4-yl)-ethyl]-pyrrolidin-2-yl}-phenyl)-N-hydroxy-acrylamide]
9 | 6.74 | 7.46 | O=C(/C=C/c1ccc([C@@H]2CCCN2CCn2cc(Br)cn2)cc1)NO [Compound 65, (E)-3-(4-{(S)-1-[2-(4-Bromo-pyrazol-1-yl)-ethyl]-pyrrolidin-2-yl}-phenyl)-N-hydroxy-acrylamide]
10 | 7.31 | 7.70 | Cc1c(CCN2CCC[C@H]2c2ccc(/C=C/C(=O)NO)cc2)c(=O)n(-c2ccccc2)n1C [Compound 116, (E)-3-(4-{(S)-1-[2-(1,5-Dimethyl-3-oxo-2-phenyl-2,3-dihydro-1H-pyrazol-4-yl)-ethyl]-pyrrolidin-2-yl}-phenyl)-N-hydroxy-acrylamide]
11 | 8.96 | 9.00 | O=C(/C=C/c1ccc([C@@H]2CCCN2CCc2cnn3ccccc23)cc1)NO [Compound 43, (E)-N-Hydroxy-3-{4-[(S)-1-(2-pyrazolo[1,5-a]pyridin-3-yl-ethyl)-pyrrolidin-2-yl]-phenyl}-acrylamide]
12 | 7.32 | 8.15 | O=C(/C=C/c1ccc([C@@H]2CCCN2CCC2CCCCC2)cc1)NO [Compound 41, (E)-3-{4-[(S)-1-(2-Cyclohexyl-ethyl)-pyrrolidin-2-yl]-phenyl}-N-hydroxy-acrylamide]
13 | 7.68 | 8.10 | O=C(/C=C/c1ccc([C@@H]2CCCN2CCc2ccc(F)cc2)cc1)NO [Compound 21, (E)-3-(4-{(S)-1-[2-(4-Fluoro-phenyl)-ethyl]-pyrrolidin-2-yl}-phenyl)-N-hydroxy-acrylamide]
14 | 8.96 | 8.85 | O=C(/C=C/c1ccc([C@@H]2CCCN2CCc2cnn3ccccc23)cc1F)NO [Compound 93, (E)-3-{2-Fluoro-4-[(S)-1-(2-pyrazolo[1,5-a]pyridin-3-yl-ethyl)-pyrrolidin-2-yl]-phenyl}-N-hydroxy-acrylamide]
15 | 7.41 | 8.30 | O=C(/C=C/c1ccc(C2CCCN2CCCc2ccccc2)cc1)NO (centres unmarked) [Compound 33, (E)-N-Hydroxy-3-{4-[1-(3-phenyl-propyl)-pyrrolidin-2-yl]-phenyl}-acrylamide]
16 | 7.02 | 7.52 | Cc1nn(CCN2CCC[C@H]2c2ccc(/C=C/C(=O)NO)cc2)cc1Br [Compound 70, (E)-3-(4-{(S)-1-[2-(4-Bromo-3-methyl-pyrazol-1-yl)-ethyl]-pyrrolidin-2-yl}-phenyl)-N-hydroxy-acrylamide]
17 | 7.51 | 7.72 | Cc1ccnn1CCN1CCC[C@H]1c1ccc(/C=C/C(=O)NO)cc1 [Compound 72, (E)-N-Hydroxy-3-(4-{(S)-1-[2-(5-methyl-pyrazol-1-yl)-ethyl]-pyrrolidin-2-yl}-phenyl)-acrylamide]
18 | 6.80 | 7.40 | Cc1c(CC(C)(C)C)nn(CCN2CCC[C@H]2c2ccc(/C=C/C(=O)NO)cc2)c1O [Compound 68, (E)-3-[4-((S)-1-{2-[3-(2,2-Dimethyl-propyl)-5-hydroxy-4-methyl-pyrazol-1-yl]-ethyl}-pyrrolidin-2-yl)-phenyl]-N-hydroxy-acrylamide]
19 | 7.46 | 8.10 | Cn1cc(CCN2CCC[C@H]2c2ccc(/C=C/C(=O)NO)cc2)cn1 [Compound 59, (E)-N-Hydroxy-3-(4-{(S)-1-[2-(1-methyl-1H-pyrazol-4-yl)-ethyl]-pyrrolidin-2-yl}-phenyl)-acrylamide]
20 | 7.40 | 8.10 | Cc1ccc(C(O)CN2CCCC2c2ccc(/C=C/C(=O)NO)cc2)cc1 (centres unmarked) [Compound 29, (E)-N-Hydroxy-3-{4-[1-(2-hydroxy-2-p-tolyl-ethyl)-pyrrolidin-2-yl]-phenyl}-acrylamide]
21 | 7.38 | 8.05 | O=C(/C=C/c1ccc(C2CCCN2CC2CCCC2)cc1)NO (centres unmarked) [Compound 40, (E)-3-[4-(1-Cyclopentylmethyl-pyrrolidin-2-yl)-phenyl]-N-hydroxy-acrylamide]
22 | 7.34 | 7.85 | COc1ccc(C(O)CN2CCCC2c2ccc(/C=C/C(=O)NO)cc2)cc1 (centres unmarked) [Compound 30, (E)-N-Hydroxy-3-(4-{1-[2-hydroxy-2-(4-methoxy-phenyl)-ethyl]-pyrrolidin-2-yl}-phenyl)-acrylamide]
23 | 7.30 | 7.44 | O=C(/C=C/c1ccc([C@@H]2CCCN2CCS(=O)(=O)c2ccccc2)cc1)NO [Compound 98, (E)-3-{4-[(S)-1-(2-Benzenesulfonyl-ethyl)-pyrrolidin-2-yl]-phenyl}-N-hydroxy-acrylamide]

Row | SMILES | pIC50 (HCT116) | pIC50 (HDAC-1)
24 | COc1ccc2[nH]c(C)c(CCN3CCCC3c3ccc(/C=C/C(=O)NO)cc3)c2c1 (centres unmarked) [Compound 6, (E)-N-Hydroxy-3-(4-{1-[2-(5-methoxy-2-methyl-1H-indol-3-yl)-ethyl]-pyrrolidin-2-yl}-phenyl)-acrylamide] | 8.92 | 8.70
25 | Cc1[nH]c2ccccc2c1CCN1CCCC1c1ccc(/C=C/C(=O)NO)cc1 (centres unmarked) [Compound 1, (E)-N-Hydroxy-3-(4-{1-[2-(2-methyl-1H-indol-3-yl)-ethyl]-pyrrolidin-2-yl}-phenyl)-acrylamide] | 9.00 | 8.52
